Measured values published in patent publication US6410564B1, “Naphthyl compounds, intermediates, processes, compositions, and methods” (Eli Lilly and Company, priority 1994, dated 2002).
Where two headings read alike, the source gives them in different places.

Columns and labels:
[1] = system: ovariectomized (OVX) female Sprague Dawley rats; conditions: rat, in vivo, po, 4 days
Method: In the examples illustrating the methods, a post-menopausal model was used in which effects of different treatments upon circulating lipids were determined.
(§1) Seventy-five day old female Sprague Dawley rats (weight range of 200 to 225 g) were obtained from Charles River Laboratories (Portage, Mich.). The animals were either bilaterally ovariectomized (OVX) or exposed to a Sham surgical procedure at Charles River Laboratories, and then shipped after one week. Upon arrival, they were housed in metal hanging cages in groups of 3 or 4 per cage and had ad libitum access to food (calcium content approximately 0.5%) and water for one week. Room temperature was maintained at 22.2°±1.7° C. with a minimum relative humidity of 40%. The photoperiod in the room was 12 hours light and 12 hours dark.
(§2) Dosing Regimen Tissue Collection. After a one week acclimation period (therefore, two weeks post-OVX) daily dosing with test compound was initiated. 17α-ethynyl estradiol or the test compound were given orally, unless otherwise stated, as a suspension in 1% carboxymethylcellulose or dissolved in 20% cyclodextrin. Animals were dosed daily for 4 days. Following the dosing regimen, animals were weighed and anesthetized with a ketamine: Xylazie (2:1, V:V) mixture and a blood sample was collected by cardiac puncture. The animals were then sacrificed by asphyxiation with CO2, the uterus was removed through a midline incision, and a wet uterine weight was determined.
(§3) Data presented in Table 1 below show comparative results among ovariectomized rats, rats treated with 17α-ethynyl estradiol (EE2; an orally available form of estrogen), and rats treated with certain compounds of the present invention. […] This uterine response to estrogen is well recognized in the art.
(§4) The data presented in the Tables 1 below reflects the response of 5 to 6 rats per treatment.

[2] = system: Uterine Eosinophil Peroxidase (EPO); conditions: rat, in vivo, po
Excerpt: as §1, §2
Uterine Eosinophil Peroxidase (EPO) Assay. Uteri were kept at 4° C. until time of enzymatic analysis. The uteri were then homogenized in 50 volumes of 50 mM Tris Buffer (pH −8.0) containing 0.005% Triton X-100. Upon addition of 0.01% hydrogen peroxide and 10 mM O-phenylenediamine (final concentrations) in Tris buffer, increase in absorbance was monitored for one minute at 450 nm. The presence of eosonophils in the uterus is an indication of estrogenic activity of a compound. The maximal velocity of a 15 second interval was determined over the initial, linear portion of the reaction curve.
As is expressed in the below data, estrogenicity also was assessed by evaluating the adverse response to eosinophil infiltration into the uterus.
as §4

[3] = system: ovariectomized (OVX) female Sprague Dawley rats; assay: Serum cholesterol in OVX rats, 4-day dosing; type: in vivo, rat; conditions: oral daily for 4 days; for inhibition in vivo at 0.01 mg/kg / inhibition in vivo at 0.1 mg/kg / inhibition in vivo at 1 mg/kg / inhibition in vivo at 10 mg/kg: Rattus norvegicus, po, 96 h, read-out: Serum Cholesterol (% decrease vs. OVX)
Excerpt: as §1, §2
Cholesterol Analysis. Blood samples were allowed to clot at room temperature for 2 hours, and serum was obtained following centrifugation for 10 minutes at 3000 rpm. Serum cholesterol was determined using a Boehringer Mannheim Diagnostics high performance cholesterol assay. Briefly the cholesterol was oxidized to cholest-4-en-3-one and hydrogen peroxide. The hydrogen peroxide was then reacted with phenol and 4-aminophenazone in the pressure of peroxidase to produce a p-quinone imine dye, which was read spectrophotemetrically at 500 nm. Cholesterol concentration was then calculated against a standard curve. The entire assay was automated using a Biomek Automated Workstation.
as §3, §4

[4] = system: ovariectomized (OVX) female Sprague Dawley rats; assay: Osteoporosis Test Procedure: distal femur metaphysis X-ray image analysis, OVX rats, 35 days; type: in vivo, rat; conditions: mean ± SEM
Excerpt: as §1
Following the General Preparation Procedure, infra, the rats were treated daily for 35 days (6 rats per treatment group) and sacrificed by carbon dioxide asphyxiation on the 36th day. The 35 day time period was sufficient to allow maximal reduction in bone density, measured as described herein. At the time of sacrifice, the uteri were removed, dissected free of extraneous tissue, and the fluid contents were expelled before determination of wet weight in order to confirm estrogen deficiency associated with complete ovariectomy. […] The uteri were then placed in 10% neutral buffered formalin to allow for subsequent histological analysis.
The right femurs were excised and digitilized x-rays generated and analyzed by an image analysis program (NIH image) at the distal metaphysis. The proximal aspect of the tibiae from these animals were also scanned by quantitative computed tomography.
In accordance with the above procedures, compounds of the present invention and ethynyl estradiol (EE2) in 20% hydroxypropyl β-cyclodextrin were orally administered to test animals. Distal femur metaphysis data presented in Tables 2 and 3 below are the results of formula I compound treatments compared to intact and ovariectomized test animals. Results are reported as the mean ± the standard error of the mean.

[5] = system: MCF-7 breast adenocarcinoma cells; assay: MCF-7 Proliferation Assay (tritiated thymidine); type: cell-based; conditions: MCF-7 cells, 48 hours with drug, tritiated thymidine pulse 4 hours
Method: MCF-7 breast adenocarcinoma cells (ATCC HTB 22) were maintained in MEM (minimal essential medium, phenol red-free, Sigma, St. Louis, Mo.) supplimented with 10% fetal bovine serum (FBS) (V/V), L-glutamine ([…]), sodium pyruvate (1 mM), HEPES {(N-[2-hydroxyethyl]piperazine-N′-[2-ethanesulfonic acid]10 mM}, non-essential amino acids and bovine insulin (1 ug/mL) (maintenance medium). Ten days prior to assay, MCF-7 cells were switched to maintenance medium supplemented with 10% dextran coated charcoal stripped fetal bovine serum (DCC-FBS) assay medium) in place of 10% FBS to deplete internal stores of steroids. MCF-7 cells were removed from maintenance flasks using cell dissociation medium (Ca++/Mg++ free HBSS (phenol red-free) supplemented with 10 mM HEPES and 2 mM EDTA). Cells were washed twice with assay medium and adjusted to 80,000 cells/mL. Approximately 100 μL (8,000 cells) were added to flat-bottom microculture wells (Costar 3596) and incubated at 37° C. in a 5% CO2 humidified incubator for 48 hours to allow for cell adherence and equilibration after transfer. Serial dilutions of drugs or DMSO as a diluent control were prepared in assay medium and 50 μL transferred to triplicate microcultures followed by 50 μL assay medium for a final volume of 200 μL. After an additional 48 hours at 37° C. in a 5% CO2 humidified incubator, microcultures were pulsed with tritiated thymidine (1 uCi/well) for 4 hours. Cultures were terminated by freezing at −70° C. for 24 hours followed by thawing and harvesting of microcultures using a Skatron Semiautomatic Cell Harvester. Samples were counted by liquid scintillation using a Wallac BetaPlace β counter. Results in Table 4 below show the IC50 for certain compounds of the present invention.

[6] = female, Sprague Dawley, 0.01 mg/kg, 4 days
[7] = female, Sprague Dawley, 0.1 mg/kg, 4 days
[8] = female, Sprague Dawley, 1 mg/kg, 4 days
[9] = female, Sprague Dawley, 10 mg/kg, 4 days
[10] = Homo sapiens, MCF7, read-out: IC50
[11] = Table 2, oral daily 35 days in 20% cyclodextrin, 0.1 mg/kg, OVX control 5.5 ± 0.6, Sham 30.5 ± 4.3
[12] = Table 2, oral daily 35 days in 20% cyclodextrin, 1.0 mg/kg, OVX control 5.5 ± 0.6, Sham 30.5 ± 4.3
[13] = Table 2, oral daily 35 days in 20% cyclodextrin, 10.0 mg/kg, OVX control 5.5 ± 0.6, Sham 30.5 ± 4.3

Uterine Weight (% increase vs. OVX) ([1]; 0.01 mg/kg) [%]	Uterine Weight (% increase vs. OVX) ([1]; 0.1 mg/kg) [%]	Uterine Weight (% increase vs. OVX) ([1]; 1 mg/kg) [%]	Uterine Weight (% increase vs. OVX) ([1]; 10 mg/kg) [%]	Uterine EPO (V. max) [2, 6]	Uterine EPO (V. max) [2, 7]	Uterine EPO (V. max) [2, 8]	Uterine EPO (V. max) [2, 9]	IC50 [5, 10] [pM]	Structure (SMILES)	inhibition in vivo at 0.01 mg/kg [3] [%]	inhibition in vivo at 0.1 mg/kg ([3]; dose 0.1 mg/kg) [%]	inhibition in vivo at 1 mg/kg ([3]; dose 1.0 mg/kg) [%]	inhibition in vivo at 10 mg/kg ([3]; dose 10.0 mg/kg) [%]	Distal Femur Metaphysis (X-ray Image Analysis-Gray Score) [4, 11]	Distal Femur Metaphysis (X-ray Image Analysis-Gray Score) [4, 12]	Distal Femur Metaphysis (X-ray Image Analysis-Gray Score) [4, 13]	other results
2.4	24.6	4.1	2.6	4.5	4.5	4.8	4.2	100	Cl.Oc1ccc(-c2ccc3cc(O)ccc3c2Cc2ccc(OCCN3CCCCC3)cc2)cc1 [Example 2, [2-(4-Hydroxyphenyl)-6-hydroxynaphthalen-1-yl][4-[2-(1-piperidinyl)ethoxy]phenyl]methane hydrochloride]	34.2	63	78.1	58.8	–	–	–	Distal Femur Metaphysis (X-ray Image Analysis-Gray Score) ([4]; Table 3, oral daily 35 days in 20% cyclodextrin, 0.01 mg/kg, OVX control 7.2 ± 2.2, Sham 44.7 ± 6.4): 19.6 ± 3.3; Distal Femur Metaphysis (X-ray Image Analysis-Gray Score) ([4]; Table 3, oral daily 35 days in 20% cyclodextrin, 0.1 mg/kg, OVX control 7.2 ± 2.2, Sham 44.7 ± 6.4): 25.7 ± 5.9; Distal Femur Metaphysis (X-ray Image Analysis-Gray Score) ([4]; Table 3, oral daily 35 days in 20% cyclodextrin, 1.0 mg/kg, OVX control 7.2 ± 2.2, Sham 44.7 ± 6.4): 21.5 ± 3.2; Distal Femur Metaphysis (X-ray Image Analysis-Gray Score) ([4]; Table 3, oral daily 35 days in 20% cyclodextrin, 10.0 mg/kg, OVX control 7.2 ± 2.2, Sham 44.7 ± 6.4): 30.0 ± 4.5
–	–	–	–	–	–	–	–	1000	Oc1ccc(-c2ccc3cc(O)ccc3c2Cc2ccc(OCCN3CCCCCC3)cc2)cc1 [Example 27, [2-(4-Hydroxyphenyl)-6-hydroxynaphthalen-1-yl][4-[2-(1-hexamethyleneiminyl)ethoxy]phenyl]methane]	–	–	–	–	–	–	–	–
−11.2	23.1	29.7	12.2	4.2	7.2	4.5	3.6	100000	COc1ccc(-c2ccc3cc(OC)ccc3c2Cc2ccc(OCCN3CCCCC3)cc2)cc1.Cl [Example 1, [2-(4-Methoxyphenyl)-6-methoxynaphthalen-1-yl][4-[2-(1-piperidinyl)ethoxy]phenyl]methane hydrochloride]	42.9	59.9	75	63.4	24.7 ± 4.2	21.7 ± 4.7	21.9 ± 3.2	–
–	–	–	–	–	–	–	–	–	CCN(CC)CCOc1ccc(Cc2c(-c3ccc(O)cc3)ccc3cc(O)ccc23)cc1 [Example 24, [2-(4-hydroxyphenyl)-6-hydroxynaphthalen-1-yl][4-[2-(1-N,N-diethylamino)ethoxy]phenyl]methane]	–	–	–	–	–	–	–	Uterine EPO (V. max) ([2]; 0.1 mg/kg): 13.8; Uterine EPO (V. max) ([2]; 1 mg/kg): 55.8; Uterine EPO (V. max) ([2]; 10 mg/kg): 36.3; Serum Cholesterol (% decrease vs. OVX) ([3]; dose 0.1 mg/kg): 69.2%; Serum Cholesterol (% decrease vs. OVX) ([3]; dose 1.0 mg/kg): 50.0%; Serum Cholesterol (% decrease vs. OVX) ([3]; dose 10.0 mg/kg): 48.4%; IC50 [5]: Not active
2.0	7.1	0.0	4.5	5.4	4.2	4.2	4.8	700	O=C(Oc1ccc(-c2ccc3cc(OC(=O)c4ccccc4)ccc3c2Cc2ccc(OCCN3CCCCC3)cc2)cc1)c1ccccc1 [Example 3, [2-(4-Benzoyloxyphenyl)-6-benzoyloxynaphthalen-1-yl][4-[2-(1-piperidinyl)ethoxy]phenyl]methane]	33.3	56.7	63.6	74.7	14.5 ± 3.6	31.4 ± 5.8	26.6 ± 6.3	–
